Columns and labels:
[1] = target: T1, extracellular domain of EphA4 (Homo sapiens, UniProt P54764); assay: In vitro pull-down of recombinant EphA4-Fc with biotinylated Rhy on streptavidin beads; format: binding; conditions: western blot
T1 construct: purchased R&D Systems
Experimental: For the pull-down analysis, Bio-Rhy was bound to streptavidin magnetic beads for 1 h, the beads was then incubated with recombinant EphA4-Fc or EphB2-Fc in the presence of 0.5% BSA for 1 h. After incubation, the beads were washed 4 times with DPBS and the presence of Eph in the complex was determined by western blot analysis.

[2] = system: EphA4-dependent growth cone collapse in hippocampal neurons; assay: EphA4-dependent (ephrin-A1-stimulated) growth cone collapse assay; format: cell-based, rat; conditions: for ephrin-A1-stimulated growth cone collapse: cultured hippocampal neurons
Experimental: Ephrin-A1-Fc was pre-clustered with goat anti-human Fc antibody (1:4.5)^24 and incubated at room temperature for 60 min before use. The growth cone collapse assay was performed in hippocampal neurons with ephrin-A1 0.1 μg/mL as described previously^61.
(§1) For EphA4 clustering, neurons were stained with anti-EphA4 and anti-Tau-1 antibodies. For the growth cone collapse assay, neurons were stained with Alexa Fluor 555-conjugated phalloidin (Molecular Probes) for filamentous actin and anti-Tau-1 antibody for axons. Collapsed growth cones were scored in a double-blinded manner. The experiments were repeated at least 3 times, and >50 neurons were analyzed for each experiment. Data are presented as mean±SEM.
To screen for small molecule EphA4 inhibitors, the inventors performed a molecular docking analysis using a small molecule library. […] Their ability in inhibiting EphA4 inhibiting the EphA4-dependent growth cone collapse using cultured hippocampal neurons was performed.

[3] = system: Aβ-induced reduction of neurotransmission in hippocampal neurons; assay: mEPSC recording in Aβ-treated cultured hippocampal neurons; format: cell-based, rat
Experimental: Primary cortical and hippocampal neurons were prepared from embryonic day 18-19 rat embryos as described previously^24. Briefly, cortical neurons (6×10^6 per plate) were plated on 100-mm culture dishes coated with poly-D-lysine (12.5 μg/mL; Sigma). Rat hippocampal neurons were seeded on 18-mm coverslips coated with poly-D-lysine (50 μg/mL) at a density of 0.5×10^5/18-mm coverslip for immunocytochemical analysis, 0.1×10^5/18-mm coverslip for growth cone collapse assay, or 1×10^5 or 1.5×10^5/18-mm coverslip for mEPSC recording. Neurons were fed Neurobasal medium (Invitrogen) supplemented with 2% B27 (Invitrogen). Acute brain slices were prepared from P15-P17 Sprague-Dawley rats. Briefly, the rats were rapidly decapitated, and their brains were immersed in ice-cold artificial cerebrospinal fluid (ACSF). The hippocampus was dissected, and 300-μm-thick slices were prepared using a vibratome (Lieca). The slices were then transferred into an incubating chamber containing circulating ACSF equilibrated with 95% O2+5% CO2 and held at room temperature for at least 2 h for recovery prior to experiments^65.
For miniature EPSC recordings, hippocampal neurons at ˜25-28 DIV were co-treated with or without 500 nM Aβ together with the testing reagents for 24 h. Whole-cell patch-clamp recordings were made at room temperature with external solution containing (in mM) 110 NaCl, 5 KCl, 2 CaCl2, 0.8 MgCl2, 10 HEPES, and 10 D-glucose (pH 7.4) as well as an internal solution containing (in mM) 135 CsCl2, 10 HEPES, 2 MgCl2, 4 NaATP, 0.4 NaGTP, and 0.5 EGTA (pH 7.2)^24,27. Picrotoxin ([…]) was included in the external solution to block GABAergic IPSCs along with 0.5 μM TTX to prevent action potential-evoked EPSCs. For miniature EPSC recordings, cells were held at −70 mV. The pipette resistances for these experiments were typically 3-5 MΩ, while series resistances were 15-20 MΩ. The minis from each cell was recorded for 1 min in each condition. The measurement of mEPSC was according to that described in Mini Analysis Program for measuring AMPA receptor EPSCs (Synaptosoft Inc.). Only recording epochs in which series and input resistances varied <10% were analyzed. Data are presented as the mean±SEM of at least 3 experiments.

EphA4 [4] = target: T2, EphA4 (Rattus norvegicus, UniProt D3ZZK3); assay: Ephrin-A1-induced EphA4 cluster assay in cultured hippocampal neurons; format: cell-based; conditions: same assay system; no data given
T2 construct: endogenous in cells; host or cells: primary rat cortical neurons (A5), primary rat hippocampal neurons (A7)
T2 sequence (D3ZZK3 20-986): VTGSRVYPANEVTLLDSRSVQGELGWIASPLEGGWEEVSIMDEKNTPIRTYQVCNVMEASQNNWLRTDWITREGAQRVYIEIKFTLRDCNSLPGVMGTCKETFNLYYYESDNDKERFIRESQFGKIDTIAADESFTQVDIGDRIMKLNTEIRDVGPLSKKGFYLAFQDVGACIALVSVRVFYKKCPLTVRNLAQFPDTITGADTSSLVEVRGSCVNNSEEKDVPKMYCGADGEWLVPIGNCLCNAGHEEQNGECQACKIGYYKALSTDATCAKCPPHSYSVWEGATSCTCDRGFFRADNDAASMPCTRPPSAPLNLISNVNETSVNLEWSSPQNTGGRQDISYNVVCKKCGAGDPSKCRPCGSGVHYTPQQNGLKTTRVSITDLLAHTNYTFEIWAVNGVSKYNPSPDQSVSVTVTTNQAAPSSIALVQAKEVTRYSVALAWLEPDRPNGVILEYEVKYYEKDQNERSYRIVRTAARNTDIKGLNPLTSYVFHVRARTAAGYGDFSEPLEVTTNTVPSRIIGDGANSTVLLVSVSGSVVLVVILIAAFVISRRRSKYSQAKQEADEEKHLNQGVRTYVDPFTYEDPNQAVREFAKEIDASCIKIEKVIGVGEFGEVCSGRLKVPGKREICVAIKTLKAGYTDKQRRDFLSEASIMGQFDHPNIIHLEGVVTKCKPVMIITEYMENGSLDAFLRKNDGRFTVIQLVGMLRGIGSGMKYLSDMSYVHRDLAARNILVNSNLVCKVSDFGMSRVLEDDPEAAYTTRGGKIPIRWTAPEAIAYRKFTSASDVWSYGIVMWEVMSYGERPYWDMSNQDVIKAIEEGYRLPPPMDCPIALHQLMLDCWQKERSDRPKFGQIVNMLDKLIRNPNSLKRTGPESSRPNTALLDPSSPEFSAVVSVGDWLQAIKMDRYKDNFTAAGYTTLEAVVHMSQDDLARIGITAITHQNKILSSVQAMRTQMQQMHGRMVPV
Experimental: as §1
Rat hippocampal neurons were seeded on 48-well plates coated with poly-D-lysine (50 μg/mL) at 6000 cells per well. Neurons were incubated with Neurobasal medium (Invitrogen) supplemented with 2% B27 (Invitrogen). […] Neurons were then immunostained with anti-EphA4 and anti-Tau-1 antibodies. The cellular imaging and quantification of EphA4 clusters was performed using IN Cell Analyzer 6000 high content assay system (GE Healthcare). EphA4 clusters were quantified by calculating the proportion of total area of EphA4 clusters on axons against Tau positive area. Statistical analysis was performed with one-way ANOVA followed by Newman-Keuls Multiple Comparison Test (Prism 5 GraphPad Software).

APP/PS1 mutant mice = assay: HFS-induced hippocampal LTP in WT and APP/PS1 mice after in vivo treatment; set-up: species or system mouse; conditions: KYL infused by osmotic pump (17 μg, ~3 weeks)
Excerpt: APP/PS1 double-transgenic mice were obtained from Jackson Laboratory (B6C3-Tg[APPswe, PSEN1dE9]85Dbo/J)^66. These mice were generated by incorporating a human/murine APP construct bearing the Swedish double mutation and the exon-9-deleted PSEN1 mutation (APPswe+PSEN1/dE9). APP transgenic mice (Tg2576) expressing a double mutant of human AβPP (Lys^670→Asn^670, Met^671→Leu^671) were also used^31. Both sexes were used for experiments, and all mice used in this study were produced by the Animal Care Facility of The Hong Kong University of Science and Technology. The genotype was confirmed by polymerase chain reaction analysis of tail biopsies. Four to five mice of the same sex were housed in a cage with food and water ad libitum with a 12-hour light/dark cycle.
To investigate the effect of blocking EphA4 signaling by KYL peptide in AD mice, 4-5-month-old AD transgenic mice were implanted with Alzet mini-osmotic pumps, model 1004, pumping its contents at 0.11 μL/h for 28 days. Pumps were loaded with either 0.23 μg/μL KYL peptide (17 μg) or vehicle solvent in artificial cerebrospinal fluid (CSF). The mini-osmotic pumps were adjusted intracerebroventricularly in the right hemisphere. EphA4 in the CA1 regions of APP/PS1 mice was knocked down by injecting vesicular stomatitis virus glycoprotein G-pseudotyped lentiviral particles with pFUGW-shEphA4 bilaterally into the corresponding regions as described previously^58.
For LTP recordings, mouse brains were immediately dissected after sacrifice and soaked in ice-cold 95% O2/5% CO2 (aCSF)^58. Brain slices (300 μm thick) were prepared using a vibrating tissue slicer (HM650V; Thermo), and soaked in oxygenated buffer for 2 h at 32° C. […] For treatment with EphA4 inhibitors, the slices were pretreated with peptides or chemicals for 1 h before application of Aβ. fEPSPs were recorded using a MED64 multichannel recording system, and the data were collected from the dendritic layer of area CA1 at a sampling rate of 10 kHz. For each slice, the baseline stimulus intensity was set at the level that elicited ˜50% of the maximum fEPSP response determined according to the input-output curve. […] The magnitude of LTP was quantified as a percentage change in the fEPSP slope (10%-90%) taken during the 60-min interval after LTP induction.
WT and APP/PS1 mutant (Tg) mice were orally administered with corylin ([…]) by daily gavage for 3-4 weeks prior to LTP measurements. LTP induced by 3 trains of HFS (100 Hz for 1 s delivered 30 s apart) in the CA1 region of the SC pathway of the hippocampus was measured. The magnitude of LTP was quantified as the percentage change in the fEPSP slope (10-90%) taken during the 60-min interval after LTP induction.

EphA4 (HT-22 cells) = target: T3, EphA4 (HT-22 cells) (Mus musculus, UniProt Q03137); assay: Cell-based binding of biotinylated ephrin-A1 to the surface of HT-22 cells; conditions: 10 min pre-incubation; Rhy 300 μM, KYL 100 μM (FIG. 10); biotinylated ephrin-A1 0.5 μg/mL
T3 construct: HT-22 cells, a cell line that expresses EphA4; endogenous in cells; host or cells: HT-22 cells
T3 sequence (Q03137 20-986): as the sequence (D3ZZK3 20-986) above, with T270S, Q559K, P874S counted along it
Experimental: HT-22 cells were seeded on poly-D-lysine coverslips. […] The cells were then fixed with 4% paraformaldehyde and then immunostained with Alexa Fluor 488-conjugated Streptavidin antibody (Molecular Probes) for surfacing labeling of biotinylated ephrin-A1.

[5] = system: Aβ-induced impairment of hippocampal LTP; assay: HFS-induced LTP (fEPSP slope) in acute hippocampal slices treated with Aβ; format: cell-based, mouse
Experimental: Oligomeric Aβ (Aβ) was prepared as described previously^59,60. Briefly, 0.5 mg monomeric Aβ1-42 was dissolved in 22.2 μL dry DMSO and then diluted in ice-cold phenol-red free F-12 medium to yield a final Aβ concentration of 100 μM. The Aβ solution was incubated at 4° C. for 24 h and then centrifuged at 14,000×g for 10 min. The supernatant was frozen in liquid nitrogen and stored at −20° C. for up to 1 month. Unless specified, cultured neurons or hippocampal slices were typically treated with Aβ at 500 nM.
For LTP recordings, mouse brains were immediately dissected after sacrifice and soaked in ice-cold 95% O2/5% CO2 (aCSF)^58. Brain slices (300 μm thick) were prepared using a vibrating tissue slicer (HM650V; Thermo), and soaked in oxygenated buffer for 2 h at 32° C. The hippocampal regions were resected and placed at the center of a MED-P210A probe (Panasonic International Inc) with 64 embedded recording electrodes. The slices were then perfused with Aβ at 500 nM in oxygenated aCSF for 2 h before LTP induction^70. For treatment with EphA4 inhibitors, the slices were pretreated with peptides or chemicals for 1 h before application of Aβ. fEPSPs were recorded using a MED64 multichannel recording system, and the data were collected from the dendritic layer of area CA1 at a sampling rate of 10 kHz. For each slice, the baseline stimulus intensity was set at the level that elicited ˜50% of the maximum fEPSP response determined according to the input-output curve. LTP was induced by 3 trains of HFS (100 Hz, 1 s, delivered 30 s apart). The magnitude of LTP was quantified as a percentage change in the fEPSP slope (10%-90%) taken during the 60-min interval after LTP induction.

EphA4 [6] = target: T2, EphA4; assay: Aβ-stimulated EphA4 tyrosine phosphorylation in acute hippocampal slices; format: cell-based; conditions: KYL 0.5 h pretreatment then Aβ 2 h
Experimental: Hippocampal synaptosomes were prepared as described previously^67. Acute hippocampal slices from P15-P17 rats were lysed in radioimmunoprecipitation assay (RIPA) buffer (1% Triton X-100, 1% sodium deoxycholate, 0.1% SDS, 150 mM NaCl, 10 mM sodium phosphate, 2 mM EDTA, and 0.2% sodium vanadate) with various protease inhibitors. For the Cdk5 kinase assay, cultured cortical neurons [16 days in vitro (DIV)] were lysed in lysis buffer A (20 mM Tris [pH 7.6], 150 mM NaCl, 1 mM EDTA, 1 mM EGTA, 1 mM NaF, and 0.5% Nonidet P-40) with various protease inhibitors. Western blot analysis was performed as described previously^24.
For the immunoprecipitation assay, lysates were immunoprecipitated with the corresponding antibody for 2 h at 4° C. followed by incubation with protein G Sepharose for 1 h at 4° C.^24. The samples were washed with RIPA buffer or buffer A and resuspended in SDS sample buffer. EphA4 tyrosine phosphorylation was detected by western blot analysis using 4G10 antibody.

[7] = system: Aβ-triggered reduction of dendritic spines in hippocampal neurons; assay: Dendritic spine analysis in Aβ-treated hippocampal neurons; format: cell-based, rat
Experimental: Cultured rat hippocampal neurons were transfected with GFP plasmid at 14-16 DIV and exposed to Aβ at 24-28 DIV for 24 h after treatment with 30 μM KYL peptide. The neurons were fixed with 4% paraformaldehyde and examined using confocal microscopy using a 63× objective lens as previously described^24.

[8] = inhibitor (Cpd1 500 μM, Ros 10 μM) + Aβ, Aβ alone 818.1±28.2 ms
[9] = inhibitor alone (Cpd1 500 μM, Ros 10 μM), control 454.1±12.5 ms

T1 sequence (P54764 20-547 limits assumed): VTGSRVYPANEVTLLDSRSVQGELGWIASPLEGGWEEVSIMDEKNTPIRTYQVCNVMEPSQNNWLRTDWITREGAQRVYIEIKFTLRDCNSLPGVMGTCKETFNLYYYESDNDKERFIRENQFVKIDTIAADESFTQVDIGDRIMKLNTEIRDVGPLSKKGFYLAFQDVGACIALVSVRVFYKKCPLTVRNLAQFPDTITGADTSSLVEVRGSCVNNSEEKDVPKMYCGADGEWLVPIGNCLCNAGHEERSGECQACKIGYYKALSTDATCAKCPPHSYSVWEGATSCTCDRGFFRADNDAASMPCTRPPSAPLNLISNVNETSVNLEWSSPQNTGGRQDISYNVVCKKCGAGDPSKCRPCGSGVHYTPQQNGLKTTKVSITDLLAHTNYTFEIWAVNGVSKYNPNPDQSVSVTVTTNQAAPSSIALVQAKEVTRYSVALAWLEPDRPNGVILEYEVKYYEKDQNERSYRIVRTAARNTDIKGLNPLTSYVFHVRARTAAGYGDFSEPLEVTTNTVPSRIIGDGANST

With `CCC1CN2CCC3(C(=O)N(CCCCCCNC(=O)CCCCC4SCC5NC(=O)NC54)c4ccccc43)C2CC1C(=COC)C(=O)OC` (stereo not shown) [Bio-Rhy] the “binding to the extracellular domain of EphA4 (pull-down, words)” value [1] was “bound specifically to the extracellular domain of EphA4”.

`Cc1ccc(C)n1-c1ccc(C(=O)O)c(O)c1` [Cpd1, 2-hydroxy-4-(2,5-dimethyl-1-pyrrolyl)benzoic acid, reference compound] was tested, and the “ephrin-A1-stimulated growth cone collapse” value [2] was “also inhibited ephrin-A1-stimulated growth cone collapse”, the “concentration at which ephrin-A1-stimulated growth cone collapse is inhibited” value ([2]; data not shown) was “exceeding 10 μM” and the mEPSC inter-event interval [3, 8] was 542.6 ± 15.4 ms. The mEPSC inter-event interval [3, 9] was 559.5 ± 16.6 ms.

`CC(C)[C@@H]1[C@H]2OC(=O)[C@@H]1[C@@H]1CC[C@@H]3CN(C)[C@H]2[C@@]31C` [Dendrobine, dendrobine] was tested, and the “ephrin-A1-stimulated growth cone collapse” value [2] was “inhibited ephrin-A1-stimulated growth cone collapse”.

For `CCC1CN2CCC3(C(=O)N(CCCCCCCCCCCl)c4ccccc43)C2CC1C(=COC)C(=O)OC` (stereo not shown) [RHY-65], the “potency as EphA4 inhibitor” value (EphA4 [4]) was “tested and verified”.

`CCC1CN2CCC3(C(=O)N(CCCCCCCCCCCCl)c4ccccc43)C2CC1C(=COC)C(=O)OC` (stereo not shown) [RHY-66] was tested, and the “potency as EphA4 inhibitor” value (EphA4 [4]) was “tested and verified”.

In the case of `CCC1CN2CCC3(C(=O)N(CCCCCCCCCCCCCl)c4ccccc43)C2CC1C(=COC)C(=O)OC` (stereo not shown) [RHY-67], the “potency as EphA4 inhibitor” value (EphA4 [4]) is reported as “tested and verified”.

`CC[C@H](CO)Nc1nc(NCc2ccccc2)c2ncn(C(C)C)c2n1` [Ros, roscovitine] showed a mEPSC inter-event interval [3, 8] of 494.1 ± 11.7 ms and a mEPSC inter-event interval [3, 9] of 451.0 ± 11.2 ms.

“KYLPYWPVLSSL [KYL peptide, reference compound]” was tested, and the “mean fEPSP slope, last 10 min after LTP induction” value (“mean fEPSP slope, last 10 min” for short) (APP/PS1 mutant mice; APP/PS1 (Tg) mice, Tg Con 154.0±8.2%) was 181.9±8.6%, the “mean fEPSP slope, last 10 min” value (APP/PS1 mutant mice; WT mice, WT Con 191.8±9.5%) was 190.1±6.9% and the “binding of ephrin-A1 to HT-22 cells” value (EphA4 (HT-22 cells)) was “reduced the binding of ephrin-A1 to HT-22 cells”. The “mean fEPSP slope, last 10 min” value ([5]; KYL peptide 100 μM + Aβ, Aβ alone 132±6.06%) was 174.9±9.0%, the “mean fEPSP slope, last 10 min” value ([5]; KYL peptide 100 μM alone, control 169±6.72%) was 164.6±5.7% and the “Aβ-stimulated tyrosine phosphorylation of EphA4” value (EphA4 [6]) was “abolished the Aβ-stimulated tyrosine phosphorylation of EphA4”. The dendritic spine density ([7]; KYL peptide alone (30 μM), control 0.66±0.1/μm) was 0.55±0.13 /μm and the dendritic spine density ([7]; co-treatment of Aβ (24 h) and KYL peptide (30 μM), Aβ alone 0.46±0.21/μm) was 0.61±0.18 /μm.

Source: patent US9629830B2, “EphA4 inhibitors as neuroprotective agents” (The Hong Kong University of Science and Technology, priority 2013, dated 2017)
